Experimental data published in the NIST ThermoML archive (doi:10.1021/je800894y).

Conditions: Liquid; for viscosity: Vibrating wire viscometry; for mass density: vibrating-wire apparatus

CC(C)CCCC(C)CCCC(C)CCCCC(C)CCCC(C)CCCC(C)C (centres undefined) [2,6,10,15,19,23-hexamethyltetracosane]
Conditions | mass density [kg/m3] | viscosity [mPa·s]
303.18 K, 1070 kPa | 802 | 22
303.18 K, 5300 kPa | 803.5 | 24.2
303.18 K, 5740 kPa | 804.4 | 24.4
303.18 K, 15580 kPa | 806.9 | 30.3
303.18 K, 25530 kPa | 813.9 | 36.9
303.18 K, 35790 kPa | 826.5 | 44.3
303.18 K, 45770 kPa | 825.1 | 54.6
303.18 K, 55770 kPa | 825.9 | 66.3
348.13 K, 5270 kPa | 776.9 | 5.59
348.13 K, 5290 kPa | 777 | 5.6
348.13 K, 25490 kPa | 790.6 | 7.79
348.13 K, 56280 kPa | 807.7 | 12.3
348.13 K, 85860 kPa | 821.2 | 18.4
348.13 K, 115830 kPa | 832.6 | 26.9
348.13 K, 145930 kPa | 844.3 | 38.7
348.13 K, 175120 kPa | 843.2 | 55.6
398.15 K, 5160 kPa | 746.3 | 2.17
398.15 K, 5230 kPa | 746.4 | 2.17
398.15 K, 25310 kPa | 763.3 | 2.89
398.15 K, 56100 kPa | 783.5 | 4.24
398.15 K, 85890 kPa | 799.5 | 5.88
398.15 K, 115450 kPa | 812.6 | 7.93
398.15 K, 145820 kPa | 824.7 | 10.6
398.15 K, 176100 kPa | 835.4 | 13.8
448.25 K, 5580 kPa | 716.3 | 1.17
448.25 K, 5730 kPa | 716.5 | 1.18
448.25 K, 25470 kPa | 736.8 | 1.54
448.25 K, 55510 kPa | 759.9 | 2.17
448.25 K, 85620 kPa | 778.7 | 2.89
448.25 K, 115510 kPa | 793.3 | 3.76
448.25 K, 145580 kPa | 806.4 | 4.78
448.25 K, 176050 kPa | 818.2 | 5.99
